Experimental data from patent US6566047B1, “Method for identifying neurite-growth promoting agents” (The Regents of the University of Colorado, priority 1998, dated 2003).
Read-outs that look alike come from different tables or passages of the source.

Tests used:
MAT-Lu cells [1] = experiment: Boyden chamber motility assay, MAT-Lu cells; format: cell-based, rat; details: for Mat-Lu cells crossing filter in % of control +/− SEM: 4 hr, thrombin 200 nM, CDC 126 nM
Description: Boyden Chamber Motility Assays. Disposable transwells (Coming Costar, Cambridge, Mass.) of 6.5 mm diameter and 8 μm pore size were coated with 5 μg/ml laminin on both sides. The membranes were washed twice with Hank's balanced salt solution (HBSS) and then pre-incubated with growth medium containing 10% fetal bovine serum. Trypsinized cells (5×10^4) were plated into the upper well. After 1 hour the upper chamber was washed twice with HBSS, filled with serum-free medium and moved to a new lower chamber, also filled with serum-free medium, with or without thrombin and/or 0.75 nM insulin-like growth factor-1 (IGF-1). After incubation for 4 hrs, cells on the membrane were fixed and stained with a Diff-Quick kit (Baxter Scientific Products). Cells on the upper side were scraped off, the membranes were removed, mounted onto microscope slides and analyzed. Each filter was scanned twice at right angles under the light microscope with a 16×phase contrast objective lens. A continuous series of 20 frames for each filter was digitized using a high-resolution CCD camera (Kodak) and stored in a Power Macintosh computer. The two most peripheral pairs of frames from each scan were deleted so that 12 frames were analyzed for each filter. Cells that had crossed the membrane were counted and tabulated. The sum of the cells counted in the twelve frames was an individual data point.

MAT-Lu cells [2] = experiment: Pseudopod morphometry (pseudopod length assay), MAT-Lu cells; format: cell-based, rat
Summary of the method: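 Cells plated at 1×10^4 per 35-mm dish overnight, shifted to serum-free medium 1 h, then exposed to thrombin, AA or HETEs in medium or by local micropipette puff. Phase-contrast images over time at heated stage; length measured from nucleus centre to process tip, analysed by gamma regression and non-parametric tests.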

AT-2 cells = experiment: Pseudopod length / retraction assay, AT-2 cells; format: cell-based, rat; details: AA even at 10^−1M
Description: Pseudopod Morphometry. To study the effects of various agents on pseudopods on a short-term basis, we measured pseudopod lengths. Cells plated in 35-mm diameter dishes at low density (1×10^4 per dish) were incubated overnight, tie medium was changed, and the experiments were run four hours later. First, cultures were shifted to serum-free medium, which was replaced one hour later by serum-free medium with or without the various agents (thrombin, AA or HETEs). Care was taken to avoid heat and light inactivation of the eicosanoids. Culture dishes were placed on a Zeiss inverted microscope equipped with a heated stage and viewed with a 16×phase contrast objective lens. Randomly selected fields of the cultures, containing generally about 20 cells each, were recorded, digitized and stored in the computer at the onset of the experiment and at different times thereafter.
In some cases, individual cells were monitored over different periods of time immediately after introduction of the reagent, either by mixing it into the medium or by applying it locally to one end of the cell. Local application was done with a “puffer” system that expels microliter amounts of the desired solution from a micromanipulator-controlled micropipette tip. Cell morphology was recorded, and the captured images were analyzed with a Power Macintosh computer using NIH Image. Cell process length was measured from the center of the nucleus to the end of the process. Characterization of the frequencies of pseudopod lengths, at a fixed time for each of a sequence of concentrations of reagent, utilized a gamma regression model with an inverse quadratic linear predictor (McCullagh and Nelder, Generalized Linear Models 2d ed., pp. 291-292 (Chapman & Hall, 1989), separately fit to each concentration data set. Although no formal goodness-of-fit tests were carried out, in virtually every case there was good visual representation of the pattern of response (see FIG. 14). Most data, however, are shown as whisker-box plots, where the center point represents the 50%, the ends of the box the […] and 75%, and the “whiskers” the 5% and 95% quantiles (e.g., FIG. 11). Statistical comparisons of pseudopod lengths for different treatments were done by standard non-parametric techniques (Wilcoxon Rank Sum or Kruskal-Wallis Tests), as judged appropriate. Polynomial curve fittings were done by standard least-squares techniques. Statistical analyses and graphing were done with the use of SAS procedures: Reg, Phreg, Nparlway and Plot (SAS institute Inc., Cary, N.C.).

PC-3M-MM2 cells = experiment: Boyden chamber assay, PC-3M-MM2 cells; format: cell-based, human
Description: In addition, seven human prostate carcinoma cell lines were used (see Table 2). One or two cell lines of medium to high motility (e.g., PC-3M-MM2 and DU145) are first selected. The PC-3M-MM2 cells disperse rapidly in the dish and, like the MAT-Lu cells, never form colonies. Cells are grown according to standard procedures. Large numbers of aliquots of all cancer cell lines arc collected and frozen in order to avoid the use of higher passage numbers in later experiments. As the experimentation progresses, the motility and morphology of the cells is re-checked to avoid distortion of results by changes in phenotype. For experimental use, cells are kept well below confluence. In order to test for potential effects of the growth matrix, cells are grown for selected experiments not only on serum-conditioned tissue culture plastic but also on laminin, collagen, fibronectin or Matrigel (Life Technologies/GIBCO-BRL, Gaitheresberg, Md.; Becton Dickinson/Collaborative Biomedical Products, Bedford Mass.). […] The motility, of all cells is assessed quantitatively using the (long-term) Boyden chamber assay as described in Boyden, J. Exp. Med. 115:453-466 (1962), incorporated herein by reference. […] The relative number of cells moving within 3-6 hours across the membrane from the upper well is counted in the presence or absence of IGF-1 in the lower chamber.

growth cone PLC = experiment: Phospholipase C assay (DG release) in GCPs; format: biochemical, rat; details: GCPs; thrombin 100 nM; calcium-dependent
Description: All assays were run in triplicate.

protein kinase C (PKC) = experiment: MARCKS phosphorylation by PKC in isolated GCPs; format: biochemical, rat; details: isolated growth cones
Description: FIG. 7A. Thrombin stimulates MARCKS phosphorylation in a 12-LOX-dependent manner. FIG. 7B. 12(S)-HETE stimulates MARCKS phosphorylation by PKC in isolated GCPs. […] Polypeptides were resolved by SDS-PAGE. MARCKS phosphorylation was quantified by phosphorimaging.

PLA2 = details: Table 3a, 100 nM
Description: Phospholipase Assays. For PLA2 assays, GCPs suspended in modified Ca^2+-free Krebs buffer (10-30 μg protein/assay) were first incubated for 10 min on ice in the presence or absence of effectors. Subsequently, phospholipid substrate (PC, PE or PI) containing radiolabelled AA (7 μM; 50,000 cpm/assay) was added and the reaction carried out at 37° C. for 10 minutes. Typically, assay mixtures contained 10 μM CaCl2; specific modifications are described in the figure legends. For phospholipase C (PLC) assays, conditions were the same when run in parallel with PLA2 assays. When PLC assays were run independently, Ca^2+ was increased to 1 mM. Reactions were terminated by the addition of 3.75 volumes of cold chloroform/methanol (1:2). PLA2 assays also were performed on neurons dissociated from fetal rat cerebral cortex. The assay conditions were the same as those just described for GCPs.
Products recovered in chloroform were loaded onto silica gel 60 TLC plates and developed as described earlier (Nègre-Aminou and Pfenninger, 1993) in hexane/ether/acetic acid (40:60:1). AA and DG were identified on TLC by co-migration with authentic standards. The appropriate bands were excised into scintillation fluid and counted on a Beckman LS 1801 scintillation sprectrometer. All assays were run in triplicate.

Substance: thrombin: potent growth cone repellent; commercially available thrombin (Sigma); rat thrombin in Boyden assays
- effect on cell migration across the membrane (MAT-Lu cells [1]; 200 nM in lower well, 4 hrs, serum-free medium): almost completely suppresses cell migration across the membrane
- Mat-Lu cells crossing filter in % of control +/− SEM (MAT-Lu cells [1]; Control column (no IGF-1)): 30.9 +/− 5.7 % of control
- Mat-Lu cells crossing filter in % of control +/− SEM (MAT-Lu cells [1]; IGF-1 (0.75 nM)): 38 +/− 9.2 % of control
- decrease in control and IGF-1-induced migration across the membrane (MAT-Lu cells [1]; at 200 nM): 70-80%
- time to pseudopod retraction after addition to cells in culture dish (MAT-Lu cells [2]): 5 to 10 min
- effect of agent alone on pseudopod length (MAT-Lu cells [2]; typically 15 min exposure): caused pseudopod shortening in MAT-Lu cells within minutes of administration
- pseudopod retraction response of AT-2 cells (AT-2 cells): essentially did not respond
- effect on cell motility (PC-3M-MM2 cells): potent inhibitor of cell motility
- effect on DG release from PI (growth cone PLC): inhibits DG release, rather than stimulating it
- stimulation of MARCKS and GAP43 phosphorylation (protein kinase C (PKC)): stimulates MARCKS and GAP43 phosphorylation
- net activity (pmol/min/mg protein), intact neurons (PLA2; substrate PE): 26.8 ± 1.9 pmol/min/mg protein
- net activity (pmol/min/mg protein), intact neurons (PLA2; substrate PI): 42.5 ± 16 pmol/min/mg protein
